According to ChEMBL document CHEMBL2021868, “Synthesis and evaluation of [¹⁸F]fluororasagiline, a novel positron emission tomography (PET) radioligand for monoamine oxidase B (MAO-B)” (Bioorg Med Chem, 2012):
Each block holds one molecule with its values, some of them ahead of it.

Legend:
[1] = target: T1, Amine oxidase [flavin-containing] A (Homo sapiens, UniProt P21397); experiment: Inhibition of human recombinant MAO-A expressed in insect cells assessed as kynuramine hydrobromide oxidation after 20 mins by spectrophotometric analysis
T1 sequence (P21397 whole entry): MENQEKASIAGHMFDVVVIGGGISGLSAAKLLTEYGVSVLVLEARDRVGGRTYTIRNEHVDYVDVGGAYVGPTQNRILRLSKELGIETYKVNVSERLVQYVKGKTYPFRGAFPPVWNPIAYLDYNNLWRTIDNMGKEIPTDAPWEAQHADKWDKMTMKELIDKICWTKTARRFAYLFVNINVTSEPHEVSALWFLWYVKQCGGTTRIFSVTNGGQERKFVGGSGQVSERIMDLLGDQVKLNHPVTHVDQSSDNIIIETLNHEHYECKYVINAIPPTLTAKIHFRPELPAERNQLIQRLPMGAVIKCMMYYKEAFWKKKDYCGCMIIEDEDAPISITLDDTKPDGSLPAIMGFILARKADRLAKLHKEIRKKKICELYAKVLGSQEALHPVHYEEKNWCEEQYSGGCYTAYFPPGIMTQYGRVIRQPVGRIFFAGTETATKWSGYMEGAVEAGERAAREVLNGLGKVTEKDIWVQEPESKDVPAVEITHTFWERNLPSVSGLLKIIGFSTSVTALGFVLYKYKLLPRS

[2] = target: T2, Amine oxidase [flavin-containing] B (Homo sapiens, UniProt P27338); experiment: Binding affinity to MAO-B in human brain external globus pallidus region at 4 MBq/200 ml after 90 mins by autoradiography analysis; format: tissue-based; settings: 1.5 h
T2 sequence (P27338 whole entry): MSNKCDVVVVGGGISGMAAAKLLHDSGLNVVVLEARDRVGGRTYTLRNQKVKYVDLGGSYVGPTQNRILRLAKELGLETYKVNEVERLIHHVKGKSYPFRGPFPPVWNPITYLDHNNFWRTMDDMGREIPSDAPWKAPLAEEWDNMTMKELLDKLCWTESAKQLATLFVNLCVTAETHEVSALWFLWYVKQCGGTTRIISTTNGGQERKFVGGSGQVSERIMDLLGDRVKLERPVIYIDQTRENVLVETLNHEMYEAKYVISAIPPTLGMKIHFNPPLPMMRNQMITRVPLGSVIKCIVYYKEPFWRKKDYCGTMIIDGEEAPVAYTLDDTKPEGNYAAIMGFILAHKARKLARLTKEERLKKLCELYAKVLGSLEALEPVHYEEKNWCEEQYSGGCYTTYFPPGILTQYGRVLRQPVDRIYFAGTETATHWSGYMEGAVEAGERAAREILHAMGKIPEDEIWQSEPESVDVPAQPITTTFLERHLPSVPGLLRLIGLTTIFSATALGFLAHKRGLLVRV

Plasma [3] = experiment: Metabolic stability in cynomolgus monkey plasma assessed as radioactivity remaining at 163 Mbq, iv measured after 120 mins by HPLC analysis; format: ADME, organism-based, Macaca fascicularis; settings: in vivo, 2 h
[4] = Chemical stability of the compound in PBS assessed as compound remaining at pH 7.4 after 180 mins; format: physicochemical; settings: read-out: Stability
[5] = Drug uptake in cynomolgus monkey cortex at 163 MBq, iv measured up to 120 mins; format: ADME, organism-based, Macaca fascicularis; settings: in vivo, 2 h
[6] = target: T2, Amine oxidase [flavin-containing] B; experiment: Binding affinity to MAO-B in human brain at 4 MBq/200 ml after 90 mins by autoradiography analysis in presence of 10 uM pirlindole; settings: 1.5 h
Plasma [7] = experiment: Drug metabolism in cynomolgus monkey plasma assessed as [18F]fluoroaminoindan metabolite retention time at 163 Mbq, iv measured by HPLC analysis; format: ADME, organism-based, Macaca fascicularis; settings: in vivo
[8] = target: T2, Amine oxidase [flavin-containing] B; experiment: Binding affinity to MAO-B in human brain thalamus region at 4 MBq/200 ml after 90 mins by autoradiography analysis; format: tissue-based; settings: 1.5 h
Plasma [9] = experiment: Drug metabolism in cynomolgus monkey plasma assessed as [18F]a metabolite retention time at 163 Mbq, iv measured by HPLC analysis; format: ADME, organism-based, Macaca fascicularis; settings: in vivo
[10] = target: T2, Amine oxidase [flavin-containing] B; experiment: Binding affinity to MAO-B in human brain caudate nucleus region at 4 MBq/200 ml after 90 mins by autoradiography analysis; settings: 1.5 h
Plasma [11] = experiment: Drug metabolism in cynomolgus monkey plasma assessed as [18F]b metabolite retention time at 163 Mbq, iv measured by HPLC analysis; format: ADME, organism-based, Macaca fascicularis; settings: in vivo
Brain [12] = experiment: Drug uptake in cynomolgus monkey brain at 163 MBq, iv measured after wash out; format: ADME, organism-based, Macaca fascicularis; settings: in vivo
Brain [13] = experiment: Drug uptake in cynomolgus monkey brain at 163 MBq, iv after 4 mins; format: ADME, organism-based, Macaca fascicularis; settings: in vivo
Plasma [14] = experiment: Drug metabolism in cynomolgus monkey plasma assessed as formation of [18F]fluoroaminoindan metabolite at 163 Mbq, iv by HPLC analysis in presence of non-radioactive compound; format: ADME, organism-based, Macaca fascicularis; settings: in vivo
[15] = target: T2, Amine oxidase [flavin-containing] B; experiment: Binding affinity to MAO-B in human brain at 4 MBq/200 ml after 90 mins by autoradiography analysis in presence of 10 uM rasagiline; settings: 1.5 h
[16] = target: T2, Amine oxidase [flavin-containing] B; experiment: Binding affinity to MAO-B in human brain at 4 MBq/200 ml after 90 mins by autoradiography analysis in presence of 10 uM L-deprenyl; settings: 1.5 h
[17] = Drug uptake in cynomolgus monkey cerebellum at 163 MBq, iv measured up to 120 mins; format: ADME, organism-based, Macaca fascicularis; settings: in vivo, 2 h
Plasma [18] = experiment: Metabolic stability in cynomolgus monkey plasma assessed as radioactivity remaining at 163 Mbq, iv measured after 45 mins by HPLC analysis; format: ADME, organism-based, Macaca fascicularis; settings: in vivo, 0.75 h
[19] = target: T2, Amine oxidase [flavin-containing] B; experiment: Inhibition of human recombinant MAO-B expressed in insect cells assessed as kynuramine hydrobromide oxidation after 20 mins by spectrophotometric analysis; format: cell-based
[20] = Drug uptake in cynomolgus monkey striatum at 163 MBq, iv measured up to 120 mins; format: ADME, organism-based, Macaca fascicularis; settings: in vivo, 2 h
[21] = target: T2, Amine oxidase [flavin-containing] B; experiment: Binding affinity to MAO-B in human brain putamen region at 4 MBq/200 ml after 90 mins by autoradiography analysis; settings: 1.5 h
[22] = target: T2, Amine oxidase [flavin-containing] B; experiment: Binding affinity to MAO-B in human brain hippocampus region at 4 MBq/200 ml after 90 mins by autoradiography analysis; format: tissue-based; settings: 1.5 h
Thalamus = experiment: Drug uptake in cynomolgus monkey thalamus at 163 MBq, iv measured up to 120 mins; format: ADME, organism-based, Macaca fascicularis; settings: in vivo, 2 h
Homo sapiens = species on record: Homo sapiens; experiment: Selectivity ratio of IC50 for human recombinant MAO-A to IC50 for human recombinant MAO-B

IC50 [1]: 2.3 µM
Activity [2]: Active
Stability (Plasma [3]): 20%
remaining at 3 h [4]: > 97%
Drug uptake [5]: Not Active
Activity [6]: Active
Time (Plasma [7]): 4.6 min
Activity [8]: Active
Time (Plasma [9]): 2.7 min
Activity [10]: Active
Time (Plasma [11]): 9.2 min
Drug uptake (Brain [12]): Active
SUV (Brain [13]): 250%
Drug metabolism (Plasma [14]): Active
Activity [15]: Not Active
Activity [16]: Not Active
Drug uptake [17]: Not Active
Stability (Plasma [18]): 50%
IC50 [19]: 0.027 µM
Drug uptake [20]: Active
Activity [21]: Active
Activity [22]: Active
Drug uptake (Thalamus): Active
SMILES: C#CCN[C@H]1c2ccccc2C[C@@H]1[18F] [[18F]FLUORORASAGILINE]

Ratio IC50 (Homo sapiens): 84
SMILES: C#CCN[C@H]1c2ccccc2C[C@@H]1F
